The results in this text go back to patent US9688710B2, “Inhibitors of sodium glucose cotransporter 1” (LEXICON PHARMACEUTICALS, INC., priority 2012, dated 2017).

Experiment [1] deals with Human sodium/glucose co-transporter type 2 (SGLT2) (Homo sapiens (Human), UniProt P31639). The experiment can be described thus: In vitro human SGLT2 inhibition assay (14C-AMG uptake). The experiment is classed as cell-based. To be noted: HEK293 cells expressing human HA-SGLT2, 14C-AMG uptake. The gist of the method: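 Uptake of 14C-AMG (100 nCi) was followed in a stable HEK293 HA-SGLT2 line over 1-2 h at 37 °C with or without compound. Buffer: 140 mM NaCl, 10 mM HEPES, 5 mM Tris, 1 mg/mL BSA, pH 7.3. Readout was scintillation counting after washing.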
Human sodium/glucose co-transporter type 2 (SGLT2), sequence (P31639 whole entry): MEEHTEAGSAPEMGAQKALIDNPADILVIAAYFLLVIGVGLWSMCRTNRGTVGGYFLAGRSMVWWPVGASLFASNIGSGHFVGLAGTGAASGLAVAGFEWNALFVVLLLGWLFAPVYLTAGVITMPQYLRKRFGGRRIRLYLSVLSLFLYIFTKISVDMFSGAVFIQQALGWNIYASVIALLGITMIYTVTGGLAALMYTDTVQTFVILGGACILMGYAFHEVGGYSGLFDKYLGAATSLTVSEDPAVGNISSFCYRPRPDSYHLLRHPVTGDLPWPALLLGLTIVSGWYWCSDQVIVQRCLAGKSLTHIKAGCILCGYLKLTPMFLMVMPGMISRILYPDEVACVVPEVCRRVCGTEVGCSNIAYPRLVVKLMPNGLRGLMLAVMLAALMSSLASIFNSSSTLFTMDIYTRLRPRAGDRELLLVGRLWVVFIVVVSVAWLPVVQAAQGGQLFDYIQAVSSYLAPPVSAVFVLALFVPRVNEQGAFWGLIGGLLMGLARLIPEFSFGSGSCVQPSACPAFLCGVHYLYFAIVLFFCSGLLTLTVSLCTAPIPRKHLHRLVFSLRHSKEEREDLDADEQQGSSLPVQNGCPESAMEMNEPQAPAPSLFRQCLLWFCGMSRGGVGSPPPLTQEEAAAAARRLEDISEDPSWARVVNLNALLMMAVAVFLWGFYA

For experiment [2], the target named is Human sodium/glucose co-transporter type 1 (SGLT1) (Homo sapiens (Human), UniProt P13866). The experiment can be described thus: In vitro human SGLT1 inhibition assay (14C-AMG uptake). The experiment is classed as cell-based. Details: key to SGLT1 (human SGLT1 IC50): ***: a value less than 0.01 μM; **: a value less than 0.1 μM; *: a value less than 1 μM; —: a value not measured or exceeding μM. Conditions: HEK293 cells expressing human HA-SGLT1, 14C-AMG uptake. Summed up:
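Uptake of 14C-AMG (100 nCi) was measured by scintillation counting after 1–2 h at 37 °C, 5% CO2, with or without compound. The buffer was pH 7.3 with 140 mM NaCl, 1 mM CaCl2, 1 mM MgCl2 and 1 mg/mL BSA. Cells were a stable HEK293 line carrying HA-SGLT1 (human), plated overnight at 30,000 per well.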

Human sodium/glucose co-transporter type 1 (SGLT1), sequence (P13866 whole entry): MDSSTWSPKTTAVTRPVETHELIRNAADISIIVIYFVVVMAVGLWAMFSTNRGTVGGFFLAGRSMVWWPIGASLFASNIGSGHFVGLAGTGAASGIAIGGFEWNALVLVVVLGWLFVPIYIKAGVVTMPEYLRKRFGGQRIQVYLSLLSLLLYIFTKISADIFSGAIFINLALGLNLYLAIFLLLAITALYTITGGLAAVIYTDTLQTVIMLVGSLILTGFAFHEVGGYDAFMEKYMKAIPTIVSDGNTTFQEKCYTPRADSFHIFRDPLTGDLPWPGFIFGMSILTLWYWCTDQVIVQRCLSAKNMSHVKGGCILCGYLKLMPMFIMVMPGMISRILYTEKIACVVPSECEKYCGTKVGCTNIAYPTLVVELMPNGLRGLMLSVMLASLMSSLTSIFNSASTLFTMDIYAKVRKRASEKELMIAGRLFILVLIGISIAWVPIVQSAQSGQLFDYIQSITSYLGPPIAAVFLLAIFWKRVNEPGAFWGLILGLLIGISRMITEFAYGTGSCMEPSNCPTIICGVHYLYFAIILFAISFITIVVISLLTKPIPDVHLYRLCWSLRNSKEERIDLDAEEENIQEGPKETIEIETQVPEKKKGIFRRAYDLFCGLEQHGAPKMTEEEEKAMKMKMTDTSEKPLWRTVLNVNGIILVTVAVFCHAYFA

For `CS[C@H]1O[C@@H](c2ccc(C)c(Cc3ccc(CCCC(=O)NC(C)(C)C(=O)NC4CCN(C(=O)OC(C)(C)C)CC4)cc3)c2)[C@H](O)[C@@H](O)[C@@H]1O` [tert-butyl 4-(2-methyl-2-(4-(4-(2-methyl-5-((2S,3R,4R,5S,6R)-3,4,5-trihydroxy-6-(methylthio)tetrahydro-2H-pyran-2-yl)benzyl)phenyl)butanamido)propanamido)piperidine-1-carboxylate], the IC50 in experiment [1] and in experiment [2] was under 10 nM each time.
As for `CNC(=O)C(C)(C)NC(=O)CCCc1ccc(Cc2cc([C@@H]3O[C@H](SC)[C@@H](O)[C@H](O)[C@H]3O)ccc2C)cc1` [N-(2-methyl-1-(methylamino)-1-oxopropan-2-yl)-4-(4-(2-methyl-5-((2S,3R,4R,5S,6R)-3,4,5-trihydroxy-6-(methylthio)tetrahydro-2H-pyran-2-yl)benzyl)phenyl)butanamide], the IC50 in experiment [1] and in experiment [2] was under 10 nM throughout.
For `CS[C@H]1OC(c2ccc(C)c(Cc3ccc(OCCNC(=O)NCC(C)(C)C(N)=O)cc3)c2)[C@H](O)[C@@H](O)[C@@H]1O` (stereo partly drawn) [2,2-dimethyl-3-(3-(2-(4-(2-methyl-5-((3R,4R,5S,6R)-3,4,5-trihydroxy-6-(methylthio)tetrahydro-2H-pyran-2-yl)benzyl)phenoxy)ethyl)ureido)propanamide], the IC50 in experiment [1] and in experiment [2] was under 10 nM each time.
Regarding `CS[C@H]1O[C@@H](c2ccc(Cl)c(Cc3ccc(OCC(=O)NC(CO)(CO)CO)cc3)c2)[C@H](O)[C@@H](O)[C@@H]1O` [2-(4-(2-chloro-5-((2S,3R,4R,5S,6R)-3,4,5-trihydroxy-6-(methylthio)tetrahydro-2H-pyran-2-yl)benzyl)phenoxy)-N-(1,3-dihydroxy-2-(hydroxymethyl)propan-2-yl)acetamide], the IC50 – broadly, the concentration at which inhibition is half-maximal – is under 10 nM in experiment [1] and under 100 nM in experiment [2].
For `CS[C@H]1O[C@@H](c2ccc(C)c(Cc3ccc(CCCC(=O)NC(C)(C)C(=O)NC4CCN(C)CC4)cc3)c2)[C@H](O)[C@@H](O)[C@@H]1O` [N-(2-methyl-1-((1-methylpiperidin-4-yl)amino)-1-oxopropan-2-yl)-4-(4-(2-methyl-5-((2S,3R,4R,5S,6R)-3,4,5-trihydroxy-6-(methylthio)tetrahydro-2H-pyran-2-yl)benzyl)phenyl)butanamide] the same measures were under 10 nM and under 10 nM.
For `CS[C@H]1OC(c2ccc(C)c(Cc3ccc(OCCNC(=O)N4CCN(C)CC4)cc3)c2)[C@H](O)[C@@H](O)[C@@H]1O` (stereo partly drawn) [4-methyl-N-(2-(4-(2-methyl-5-((3R,4R,5S,6R)-3,4,5-trihydroxy-6-(methylthio)tetrahydro-2H-pyran-2-yl)benzyl)phenoxy)ethyl)piperazine-1-carboxamide], in that order: under 10 nM and under 10 nM.
Take `CS[C@H]1O[C@@H](c2ccc(C)c(Cc3ccc(CCCCC(=O)NC(C)(C)C(N)=O)cc3)c2)[C@H](O)[C@@H](O)[C@@H]1O` [N-(1-amino-2-methyl-1-oxopropan-2-yl)-5-(4-(2-methyl-5-((2S,3R,4R,5S,6R)-3,4,5-trihydroxy-6-(methylthio)tetrahydro-2H-pyran-2-yl)benzyl)phenyl)pentanamide]: the IC50 in experiment [1] and in experiment [2] was under 10 nM throughout.
On to `CS[C@H]1O[C@@H](c2ccc(C)c(Cc3ccc(CCCC(=O)NC(C)(C)C(=O)O)cc3)c2)[C@H](O)[C@@H](O)[C@@H]1O` [2-methyl-2-(4-(4-(2-methyl-5-((2S,3R,4R,5S,6R)-3,4,5-trihydroxy-6-(methylthio)tetrahydro-2H-pyran-2-yl)benzyl)phenyl)butanamido)propanoic acid], for which the values for the IC50 in experiment [1] and in experiment [2] were under 10 nM and under 100 nM, respectively.
For `CS[C@H]1O[C@@H](c2ccc(C)c(Cc3ccc(CCCC(=O)NCC(C)(C)N)cc3)c2)[C@H](O)[C@@H](O)[C@@H]1O` [N-(2-amino-2-methylpropyl)-4-(4-(2-methyl-5-((2S,3R,4R,5S,6R)-3,4,5-trihydroxy-6-(methylthio)tetrahydro-2H-pyran-2-yl)benzyl)phenyl)butanamide], in that order: under 10 nM and under 10 nM.
For the compound `CS[C@H]1O[C@@H](c2ccc(C)c(Cc3ccc(OCCCC(=O)O)cc3)c2)[C@H](O)[C@@H](O)[C@@H]1O` [4-(4-(2-methyl-5-((2S,3R,4R,5S,6R)-3,4,5-trihydroxy-6-(methylthio)tetrahydro-2H-pyran-2-yl)benzyl)phenoxy)butanoic acid], in experiment [1], the IC50 is under 100 nM. In experiment [2], the “SGLT1 (human SGLT1 IC50)” value is “—”.
Turning to `CS[C@H]1O[C@@H](c2ccc(Cl)c(Cc3ccc(OCC(=O)NC(C)(C)C(N)=O)cc3)c2)[C@H](O)[C@@H](O)[C@@H]1O` [2-(2-(4-(2-chloro-5-((2S,3R,4R,5S,6R)-3,4,5-trihydroxy-6-(methylthio)tetrahydro-2H-pyran-2-yl)benzyl)phenoxy)acetamido)-2-methylpropanamide], the results for the IC50 in experiment [1] and in experiment [2] were under 10 nM and under 100 nM, respectively.
For `CS[C@H]1O[C@@H](c2ccc(Cl)c(Cc3ccc(OCCCNC(=O)NC(C)(C)C(N)=O)cc3)c2)[C@H](O)[C@@H](O)[C@@H]1O` [2-(3-(3-(4-(2-chloro-5-((2S,3R,4R,5S,6R)-3,4,5-trihydroxy-6-(methylthio)tetrahydro-2H-pyran-2-yl)benzyl)phenoxy)propyl)ureido)-2-methylpropanamide], in that order: under 10 nM and under 10 nM.
As to `CS[C@H]1O[C@@H](c2ccc(C)c(Cc3ccc(CCCC(=O)NCC(C)(C)C(=O)N(C)CCN(C)C)cc3)c2)[C@H](O)[C@@H](O)[C@@H]1O` [N-(3-((2-(dimethylamino)ethyl)(methyl)amino)-2,2-dimethyl-3-oxopropyl)-4-(4-(2-methyl-5-((2S,3R,4R,5S,6R)-3,4,5-trihydroxy-6-(methylthio)tetrahydro-2H-pyran-2-yl)benzyl)phenyl)butanamide], in experiment [1], the half-maximal inhibitory concentration (IC50) was under 100 nM. Further, the “SGLT1 (human SGLT1 IC50)” value in experiment [2] was “—”.
With `CS[C@H]1O[C@@H](c2ccc(C)c(Cc3ccc(OCCCC(=O)NC(CO)CO)cc3)c2)[C@H](O)[C@@H](O)[C@@H]1O` [N-(1,3-dihydroxypropan-2-yl)-4-(4-(2-methyl-5-((2S,3R,4R,5S,6R)-3,4,5-trihydroxy-6-(methylthio)tetrahydro-2H-pyran-2-yl)benzyl)phenoxy)butanamide], the half-inhibitory concentration (IC50) in experiment [1] and in experiment [2] was under 10 nM each time.
As to `CS[C@H]1O[C@@H](c2ccc(C)c(Cc3ccc(OCCCC(=O)N[C@H](C)C(N)=O)cc3)c2)[C@H](O)[C@@H](O)[C@@H]1O` [N-((R)-1-amino-1-oxopropan-2-yl)-4-(4-(2-methyl-5-((2S,3R,4R,5S,6R)-3,4,5-trihydroxy-6-(methylthio)tetrahydro-2H-pyran-2-yl)benzyl)phenoxy)butanamide], the IC50 in experiment [1] and in experiment [2] was under 10 nM throughout.
With `CS[C@H]1O[C@@H](c2ccc(C)c(Cc3ccc(OCCNC(C)(C)CO)cc3)c2)[C@H](O)[C@@H](O)[C@@H]1O` [(2S,3R,4R,5S,6R)-2-(3-(4-(2-((1-hydroxy-2-methylpropan-2-yl)amino)ethoxy)benzyl)-4-methylphenyl)-6-(methylthio)tetrahydro-2H-pyran-3,4,5-triol], the IC50 in experiment [1] and in experiment [2] was under 10 nM in each case.
Turning to `CS[C@H]1O[C@@H](c2ccc(Cl)c(Cc3ccc(OCCCNC(=O)C(C)(C)CO)cc3)c2)[C@H](O)[C@@H](O)[C@@H]1O` [N-(3-(4-(2-chloro-5-((2S,3R,4R,5S,6R)-3,4,5-trihydroxy-6-(methylthio)tetrahydro-2H-pyran-2-yl)benzyl)phenoxy)propyl)-3-hydroxy-2,2-dimethylpropanamide], the values for the IC50 in experiment [1] and in experiment [2] were under 10 nM and under 100 nM, respectively.
As for `CS[C@H]1O[C@@H](c2ccc(C)c(Cc3ccc(OCCCC(=O)NCCO)cc3)c2)[C@H](O)[C@@H](O)[C@@H]1O` [N-(2-hydroxyethyl)-4-(4-(2-methyl-5-((2S,3R,4R,5S,6R)-3,4,5-trihydroxy-6-(methylthio)tetrahydro-2H-pyran-2-yl)benzyl)phenoxy)butanamide], the IC50 in experiment [1] is under 10 nM; in experiment [2], under 100 nM.
For `CS[C@H]1O[C@@H](c2ccc(Cl)c(Cc3ccc(OCCCC(=O)N[C@@H](CO)C(N)=O)cc3)c2)[C@H](O)[C@@H](O)[C@@H]1O` [N-((S)-1-amino-3-hydroxy-1-oxopropan-2-yl)-4-(4-(2-chloro-5-((2S,3R,4R,5S,6R)-3,4,5-trihydroxy-6-(methylthio)tetrahydro-2H-pyran-2-yl)benzyl)phenoxy)butanamide], in that order: under 10 nM and under 100 nM.
For `CS[C@H]1O[C@@H](c2ccc(Cl)c(Cc3ccc(OCCCC(=O)NC(C)(C)CO)cc3)c2)[C@H](O)[C@@H](O)[C@@H]1O` [4-(4-(2-chloro-5-((2S,3R,4R,5S,6R)-3,4,5-trihydroxy-6-(methylthio)tetrahydro-2H-pyran-2-yl)benzyl)phenoxy)-N-(1-hydroxy-2-methylpropan-2-yl)butanamide] the same measures were under 10 nM and under 10 nM.
